Measurements published in patent US20250154126A1, “CRYSTALLINE FORM OF SULFUR-CONTAINING ISOINDOLINE DERIVATIVE” (JIANGSU HENGRUI PHARMACEUTICALS CO., LTD., priority 2022, published 2025).
Values belong to the compound of their own block, whether it stands above or below them.

Assays:
NCI-H929 xenograft tumor = test: Pharmacodynamic test: NCI-H929 xenograft tumor in CB-17 SCID mice; assay type: in vivo; details: for Number of remaining animals/group: 1 mg/kg qd/11 d, oral
Protocol: This experiment was performed to evaluate the inhibition effect of the compound of Example 1 and the control example CC-92480 on the growth of human multiple myeloma cell NCI-H929 xenograft tumor in CB-17 SCID mice.
Solutions of the compound of Example 1 and the control example CC-92480 were prepared with 5% DMSO+20% PEG400+70% (10% TPGS)+5% (1% HPMC K100LV).
Thirty CB-17 SCID female mice, purchased from Beijing Vital River Laboratory Animal Technology Co., Ltd. (certificate No. 20170011006049, SCXK (Shanghai) 2017-0011), weighing about 19 g at the time of purchase, were bred at 5 mice/cage (in a 12/12 hour light/dark cycle, at a constant temperature of 23±1° C. and humidity of 50%-60%) and had free access to food and water.
After adaptive feeding, the CB-17 SCID mice were grouped as follows:
NCI-H929 cells in a logarithmic growth phase were inoculated subcutaneously into the right flank of 30 female CB-17 SCID mice at 5×10^6 cells/mouse/100 μL (containing […] of Matrigel). After 10 days, when the tumor volume of the tumor-bearing mice reached about 200 mm^3, the mice were randomly divided into 3 groups according to the tumor volume and body weight: vehicle control group, CC-92480-1 mpk, compound of Example 1-1 mpk, with […]. The day of grouping was set as Day 0 (DO), and intragastric administration was performed once a day for 11 days (Table 2). For the tumor-bearing mice, the tumor volume was measured with a vernier caliper and the body weight was measured with a balance twice a week, and the data were recorded.
The tumor volume (V) was calculated as follows: V=1/2×a×b^2, where a and b represent length and width, respectively.
The relative tumor proliferation rate T/C (%)=(T−T0)/(C−C0)×100(%), where T and C are the tumor volume of animals at the end of the experiment in the treatment group and control group, respectively; T0 and C0 are the tumor volume of animals at the beginning of the experiment in the treatment group and control group, respectively. […]

[1] = Hygroscopicity study of crystal forms (dynamic vapour sorption, 25° C.); assay type: physicochemical; details: for Crystal form after hygroscopicity test: two cycles
Description: According to the “9103 Guideline for Hygroscopicity for Pharmaceuticals” in Part IV of the 2015 edition of the Chinese Pharmacopoeia, descriptions of hygroscopic characteristics and definitions of hygroscopic weight gain are as follows; • Deliquescent: Absorbs sufficient moisture to form a liquid; • Extremely hygroscopic: Hygroscopic weight gain is no less than 15%; • Hygroscopic: Hygroscopic weight gain is less than 15% but no less than 2%; • Slightly hygroscopic: Hygroscopic weight gain is less than 2% but no less than 0.2%; • Non-hygroscopic or nearly non-hygroscopic: Hygroscopic weight gain is less than 0.2%.
Compound of Formula (I) (Oct. 15, 2021, Nanjing) 03881 Using the Surface Measurement Systems advantage 2, at a temperature of 25° C., and starting at a humidity of 50%, the humidity range was examined from […] to 95%, with increments of 10%. The criterion for evaluation was that the mass change dM/dT at each gradient was less than 0.002%, TMAX was 360 min, and the process was cycled twice.

[2] = Long-term/accelerated stability of crystal forms (25° C. 60% RH and 40° C. 75% RH); assay type: physicochemical; details: for physical and chemical stability, long-term accelerated conditions: 25° C. 60% RH and 40° C. 75% RH, six months
Protocol: The crystal forms D, E, Q, and U of the compound of formula (I) were respectively placed under conditions of 25° C. with 60% RH and 40° C. with 75% RH to evaluate their stability.

[3] = Influencing factor stability of crystal forms (light, high temperature, high humidity, 30 days); assay type: physicochemical; details: for change in purity under 60° C. and light: 60° C. and light (4500 Lux); for change in purity under 60° C. and light / physicochemical stability under high humidity: open; for physicochemical stability under high humidity: high humidity conditions of 75% and 92.5%; for crystal form after influencing factor experiments: light, high temperature, high humidity
Protocol: Each crystal form was spread out in an open exposure setup, and the stability of the samples under conditions of light (4500 Lux), high temperature (40° C., 60° C.), and high humidity (RH 75 RH 92.5%) was examined separately. The sampling inspection period was 30 days.

[4] = 92.5% RH, 14 days, open exposure
[5] = 92.5% RH, 30 days, open exposure
[6] = light 4500 Lux, 7 days, open exposure
[7] = light 4500 Lux, 14 days, open exposure
[8] = light 4500 Lux, 30 days, open exposure
[9] = 92.5% RH, 7 days, open exposure

Compound: N#Cc1ccc(N2CCN(Cc3ccc(COc4cccc5c4CN([C@H]4CCC(=O)NC4=O)C5=O)cc3)CC2)c(F)c1 [CC-92480, reference compound]
Number of remaining animals/group (NCI-H929 xenograft tumor): 7/7

Hygroscopic weight change 0.0% RH-95.0% RH [1]: 0.67%
Hygroscopic weight change 20% RH-80% RH [1]: 0.24%
Hygroscopicity class (20% RH-80% RH) [1]: (slightly hygroscopic)
Crystal form after hygroscopicity test [1]: Untransformed
physical and chemical stability, long-term accelerated conditions [2]: good physical and chemical stability
Purity % 1 month ([2]; 25° C., 60% RH): 99.5%
Purity % 2 months ([2]; 25° C., 60% RH): 99.5%
Purity % 3 months ([2]; 25° C., 60% RH): 99.5%
Purity % 1 month ([2]; 40° C., 75% RH): 99.5%
Purity % 2 months ([2]; 40° C., 75% RH): 99.4%
Purity % 3 months ([2]; 40° C., 75% RH): 99.4%
Purity % 6 months ([2]; 40° C., 75% RH): 99.1%
Purity % Onset [2]: 99.6%
Color and character ([3]; 40° C., 7 days, open exposure): White solid
Purity % ([3]; 40° C., 7 days, open exposure): 99.5%
Color and character ([3]; 40° C., 14 days, open exposure): White solid
Purity % ([3]; 40° C., 14 days, open exposure, listed as Free crystal form Q): 99.4%
Color and character ([3]; 40° C., 30 days, open exposure): White solid
Purity % ([3]; 40° C., 30 days, open exposure, listed as Free crystal form Q): 99.1%
change in purity under 60° C. and light ([3]; 30 days): slight decrease in purity
Color and character ([3]; 60° C., 7 days, open exposure): White solid
Purity % ([3]; 60° C., 7 days, open exposure, listed as Free crystal form Q): 99.3%
Color and character ([3]; 60° C., 14 days, open exposure): White solid
Purity % ([3]; 60° C., 14 days, open exposure, listed as Free crystal form Q): 98.9%
Color and character ([3]; 60° C., 30 days, open exposure): White solid
Purity % ([3]; 60° C., 30 days, open exposure, listed as Free crystal form Q): 98.5%
Color and character ([3]; 75% RH, 7 days, open exposure): White solid
Purity % ([3]; 75% RH, 7 days, open exposure): 99.6%
Color and character ([3]; 75% RH, 14 days, open exposure): White solid
Purity % ([3]; 75% RH, 14 days, open exposure, listed as Free crystal form Q): 99.6%
Color and character ([3]; 75% RH, 30 days, open exposure): White solid
Purity % ([3]; 75% RH, 30 days, open exposure, listed as Free crystal form Q): 99.6%
Color and character [3, 4]: White solid
Purity % ([3]; 92.5% RH, 14 days, open exposure, listed as Free crystal form Q): 99.6%
Color and character [3, 5]: White solid
Purity % ([3]; 92.5% RH, 30 days, open exposure, listed as Free crystal form Q): 99.5%
Color and character ([3]; Onset, 0 days): White solid
Purity % ([3]; Onset, 0 days, listed as Free crystal form Q): 99.6%
physicochemical stability under high humidity ([3]; 30 days): good physicochemical stability
Color and character [3, 6]: White solid
Purity % ([3]; light 4500 Lux, 7 days, open exposure, listed as Free crystal form Q): 99.5%
Color and character [3, 7]: White solid
Purity % ([3]; light 4500 Lux, 14 days, open exposure, listed as Free crystal form Q): 98.8%
Color and character [3, 8]: White solid
Purity % ([3]; light 4500 Lux, 30 days, open exposure, listed as Free crystal form Q): 93.9%
crystal form after influencing factor experiments ([3]; 30 days): remain unchanged
Compound: N#Cc1ccc(N2CCC(Sc3ccc(COc4cccc5c4CN([C@H]4CCC(=O)NC4=O)C5=O)cn3)CC2)c(F)c1 [Crystal form Q, (S)-4-(4-((5-(((2-(2,6-dioxopiperidin-3-yl)-1-oxoisoindolin-4-yl)oxy)methyl)pyridin-2-yl)thio)piperidin-1-yl)-3-fluorobenzonitrile]

Hygroscopic weight change 0.0% RH-95.0% RH [1]: 2.06%
Hygroscopic weight change 20% RH-80% RH [1]: 1.03%
Hygroscopicity class (20% RH-80% RH) [1]: (slightly hygroscopic)
Crystal form after hygroscopicity test [1]: Untransformed
physical and chemical stability, long-term accelerated conditions [2]: good physical and chemical stability
Purity % 1 month ([2]; 25° C., 60% RH): 99.7%
Purity % 2 months ([2]; 25° C., 60% RH): 99.6%
Purity % 3 months ([2]; 25° C., 60% RH): 99.6%
Purity % 1 month ([2]; 40° C., 75% RH): 99.7%
Purity % 2 months ([2]; 40° C., 75% RH): 99.6%
Purity % 3 months ([2]; 40° C., 75% RH): 99.6%
Purity % 6 months ([2]; 40° C., 75% RH): 99.5%
Purity % Onset [2]: 99.7%
Color and character ([3]; 40° C., 7 days, open exposure): White solid
Purity % ([3]; 40° C., 7 days, open exposure): 99.5%
Color and character ([3]; 40° C., 14 days, open exposure): White solid
Purity % ([3]; 40° C., 14 days, open exposure, listed as Free crystal form U): 99.3%
Color and character ([3]; 40° C., 30 days, open exposure): White solid
Purity % ([3]; 40° C., 30 days, open exposure, listed as Free crystal form U): 98.8%
change in purity under 60° C. and light ([3]; 30 days): slight decrease in purity
Color and character ([3]; 60° C., 7 days, open exposure): White solid
Purity % ([3]; 60° C., 7 days, open exposure, listed as Free crystal form U): 98.9%
Color and character ([3]; 60° C., 14 days, open exposure): White solid
Purity % ([3]; 60° C., 14 days, open exposure, listed as Free crystal form U): 98.5%
Color and character ([3]; 60° C., 30 days, open exposure): White solid
Purity % ([3]; 60° C., 30 days, open exposure, listed as Free crystal form U): 97.5%
Color and character ([3]; 75% RH, 7 days, open exposure): White solid
Purity % ([3]; 75% RH, 7 days, open exposure): 99.6%
Color and character ([3]; 75% RH, 14 days, open exposure): White solid
Purity % ([3]; 75% RH, 14 days, open exposure, listed as Free crystal form U): 99.7%
Color and character ([3]; 75% RH, 30 days, open exposure): White solid
Purity % ([3]; 75% RH, 30 days, open exposure, listed as Free crystal form U): 99.6%
Color and character [3, 9]: White solid
Purity % [3, 9]: 99.7%
Color and character [3, 4]: White solid
Purity % ([3]; 92.5% RH, 14 days, open exposure, listed as Free crystal form U): 99.7%
Color and character [3, 5]: White solid
Purity % ([3]; 92.5% RH, 30 days, open exposure, listed as Free crystal form U): 99.6%
Color and character ([3]; Onset, 0 days): White solid
Purity % ([3]; Onset, 0 days, listed as Free crystal form U): 99.7%
physicochemical stability under high humidity ([3]; 30 days): good physicochemical stability
Color and character [3, 6]: White solid
Purity % ([3]; light 4500 Lux, 7 days, open exposure, listed as Free crystal form U): 99.3%
Color and character [3, 7]: White solid
Purity % ([3]; light 4500 Lux, 14 days, open exposure, listed as Free crystal form U): 99.3%
Color and character [3, 8]: White solid
Purity % ([3]; light 4500 Lux, 30 days, open exposure, listed as Free crystal form U): 98.8%
crystal form after influencing factor experiments ([3]; 30 days): remain unchanged
Compound: N#Cc1ccc(N2CCC(Sc3ccc(COc4cccc5c4CN([C@H]4CCC(=O)NC4=O)C5=O)cn3)CC2)c(F)c1 [Crystal form U, (S)-4-(4-((5-(((2-(2,6-dioxopiperidin-3-yl)-1-oxoisoindolin-4-yl)oxy)methyl)pyridin-2-yl)thio)piperidin-1-yl)-3-fluorobenzonitrile]

Number of remaining animals/group (NCI-H929 xenograft tumor): 7/7
Compound: N#Cc1ccc(N2CCC(Sc3ccc(COc4cccc5c4CN([C@H]4CCC(=O)NC4=O)C5=O)cn3)CC2)c(F)c1 [Example 1, (S)-4-(4-((5-(((2-(2,6-dioxopiperidin-3-yl)-1-oxoisoindolin-4-yl)oxy)methyl)pyridin-2-yl)thio)piperidin-1-yl)-3-fluorobenzonitrile]
influence on the body weight of mice (NCI-H929 xenograft tumor; 1 mg/kg qd, 11 days, CB-17 SCID mice): no influence
